From publication PMC12455130, “Multifunctional molecular agent for tau-targeted combinational therapy of Alzheimer’s disease” (The Journal of Biological Chemistry, 2025)

Assays:
tau peptide R3 [1] = biological target: T1, tau peptide R3 (Homo sapiens, UniProt P10636); test: ThS assay, heparin-induced R3 aggregation (kinetics and dose-response); format: biochemical; conditions: 80 μM compound, 15 μM R3, 3.8 μM heparin, 37 °C, 3 h
T1 construct: R3 (^306VQIVYK PVDLSK VTSKCG SLGNIH HKPGGG Q^336) and rabbit anti-tau antibody were purchased from MuJin; purchased MuJin
Description: The inhibition effect of 4GA–2GA on R3 aggregation was explored by thioflavin S (ThS) assay ([24]). In general, the kinetics of R3 aggregation in the absence or the presence of 4GA, 2GA was assessed by measuring the emission intensity of ThS at 500 nm, which reflects the amount of R3 aggregates. As the control experiments, the aggregation kinetics of 4ME and GA were also carried out. While induced by heparin, R3 aggregates rapidly at 37 °C, and the fluorescence of ThS reaches a maximum after an average time of 200 s (Fig. 4A). Based on the aforementioned conditions, the inhibitory ability of our synthetic compounds at three different concentrations (5, 10, and 40 μM) was tested.
Next, the dose–response inhibitory effects of our synthetic compounds on R3 aggregation were investigated. The detailed experimental operation was descripted in ESI. […] The apparent values of IC50 were calculated according to the dose−response curve.
Tau peptide R3 was adjusted to a concentration of 15 μM using 50 mM Tris−HCl buffer (pH 7.4), ThS (final concentration of 10 μM), and different amounts of 4GA, 2GA, 4ME, and GA (final concentration of 0, 5, 10, and 40 μM) as the aggregation inhibitor were added in1to the reaction mixture. Aggregation was induced by adding heparin to the solution (final concentration of 3.8 μM); the kinetics of each sample was immediately monitored by a fluorescence spectrophotometer with a 10-mm quartz cell at 440/500 nm (excitation/emission). A circulating water bath was necessary to maintain the temperature at 37 °C.
Tau peptide R3 was adjusted to a concentration of 15 μM using 50 mM Tris–HCl buffer (pH 7.4). Different amounts of 4GA, 2GA, 4ME, and GA (final concentration of 0, 1, 2, 4, 6, 10, 15, 20, 30, 40, 60, or 80 μM) as the aggregation inhibitors were added into the reaction mixture. Aggregation was induced by adding heparin to the solution (final concentration of 3.8 μM), After 3 h incubation at 37°C, ThS (final concentration of 10 μM) was added, and the fluorescence intensity at 440/500 nm (excitation/emission) was recorded on Hitachi F-7000 with a 10-mm quartz cell. The dose−response inhibitory effects of R3 aggregation were expressed by the aggregation percentage, which was calculated according to the following (Formula 4.3):(4.3) aggregation%=F-F0/Ft-F0×100
where F0 = fluorescence intensity of R3 monomer, Ft = fluorescence intensity of R3 aggregate, and F = fluorescence intensity of R3 aggregate in the presence of inhibitors. The IC50 values were also calculated according to the dose−response inhibitory effects.
Tau peptide R3 was adjusted to a concentration of 15 μM using Tris−HCl buffer (pH 7.4), and the synthetic compounds (4GA, 2GA, together with 4ME, GA as the comparison) at different concentrations, as aggregation inhibitor, were added into the reaction mixture separately. Aggregation was induced by heparin, and incubated at 37 °C for 3 h. By introducing fluorescence probe ThS, the dose−response inhibitory effects on R3 aggregation were recorded, according to normalized ThS fluorescence intensity (excitation: 440 nm, emission: 500 nm).
Figure S14. Inhibitory effects of N-substituted Azacrown on heparin-induced R3 aggregation, exermined by ThS fluorescence: 15 μM R3 and 3.8 μM heparin with cyclen, 1ME, 2ME, 3ME, and 4ME (80 μM) was incubated respectively at 37°C for 3h. 10 μM ThS was added to each of the solution, Spectra of ThS fluorescence were recorded at Ex440 nm.

tau peptide R3 [2] = biological target: T1, tau peptide R3; test: ThS assay, Cu2+-promoted heparin-induced R3 aggregation; format: biochemical; conditions: R3 15 μM, Cu2+ 3.8 μM, compound 10 μM, heparin 3.8 μM, 3 h
Source text: Metal ions, especially Cu^2+, are believed to be highly compatible with cysteine residues of tau peptide as a coordination center ([26]). Accompanied by the formation of intermolecular S–Cu–S bridging coordination bond, or intermolecular disulfide bond, these metal ions have been proven to promote tau aggregation ([27]). After confirming that 4GA and 2GA can effectively remove copper ions through coordination, we further explore their effects on R3 aggregation under the promotion of Cu^2+. […] Heparin was used to initiate the aggregation ([15]). […] As a comparison, the effects of the precursor compounds: 4ME, 3ME, 2ME, and 1ME, on Cu^2+-promoted R3 aggregation were also examined (Fig. S15).
Figure 5 Kinetic curves and TEM image of R3 aggregation with 4GA or 2GA.A, kinetic curves of the R3 (15 μM) aggregation monitored by ThS fluorescence assay in different conditions. B, ThS fluorescence intensity of R3 (15 μM) incubated for 3 h in different conditions. C, TEM image of R3 fibrils in different conditions. Negatively stained with uranyl acetate. Scale bar represents 200 nm. Final concentrations of R3, Cu^2+, and inhibitors are 15, 3.8, and 10 μM, respectively. All aggregations were initiated by heparin (3.8 μM). 2GA, (4,10-dimethyl-1,4,7,10-tetraazacyclododecane-1,7-diyl)bis((3,4,5-trihydroxyphenyl)methanone); 4GA, (1,4,7,10-tetraazacyclododecane-1,4,7,10-tetrayl)tetrakis((3,4,5-trihydroxyphenyl)methanone); TEM, transmission electron microscopy; ThS, thioflavin S.
The promotion of Cu^2+ on R3 aggregation was also inspected, similar to the aforementioned operation, unless that 3.8 μM Cu^2+ was also included, and using 50 mM Hepes (pH 7.4) as the buffer solution.
Fig. S15 ThS fluorescence intensity of R3 (15 µM) incubated for 3 h. Final concentrations of R3, Cu^2+, and compounds are 15, 3.8 and 10 µM, respectively. All aggregations were initiated by heparin (3.8 µM).

tau protein = conditions: cited from earlier work
[3] = set-up: method as in PMID 19496588; conditions: cited from earlier work
tau peptide R3 [4] = biological target: T1, tau peptide R3; set-up: method as in PMID 23442089; conditions: reported earlier; read-out: IC50 on R3 aggregation; cited from earlier work

T1 sequence (P10636 623-653 limits assumed): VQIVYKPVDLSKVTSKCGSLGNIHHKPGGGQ

Compound	effect on heparin-induced R3 aggregation (ThS fluorescence at 500 nm) (tau peptide R3 [1])	ThS fluorescence intensity of R3 aggregation in the presence of Cu2+ (tau peptide R3 [2])	also measured
CN1CCNCCN(C)CCN(C)CC1 [3ME, 1,4,7-trimethyl-1,4,7,10-tetraazacyclododecane]	did not hinder the aggregation of R3 peptides	only to a level close to the case of R3 aggregation in the absence of Cu^2+	–
C=C(C)[C@@H]1CCC(C)=C[C@H]1c1c(O)cc(CCCCC)cc1O [cannabidiol]	–	–	binding ability to tau protein (tau protein): 42100 M⁻¹
C1CNCCNCCNCCN1 [cyclen, 1,4,7,10-tetraazacyclododecane]	–	–	log KCu-cyclen (thermodynamic stability) [3]: 24.8
tannic acid	–	–	IC50 (tau peptide R3 [4]): 3.5 µM
1,4,7-trimethyl-1,4,7,10-tetraazacyclododecane [2ME]	did not hinder the aggregation of R3 peptides	only to a level close to the case of R3 aggregation in the absence of Cu^2+	–
CN1CCNCCNCCNCC1 [1ME, 1-methyl-1,4,7,10-tetraazacyclododecane]	did not hinder the aggregation of R3 peptides	only to a level close to the case of R3 aggregation in the absence of Cu^2+	–
Nc1nc(=O)c2nc(CNc3ccc(C(=O)N[C@@H](CCC(=O)O)C(=O)O)cc3)cnc2[nH]1 [folic acid]	–	–	binding ability to tau protein (tau protein): 230000 M⁻¹
